Test results as given in patent US20120202231A1, “SYNERGISTIC BIOMARKER ASSAY OF NEUROLOGICAL CONDITION USING S-100B” (priority 2009, published 2012).

Tested on: Female Sprague-Dawley rats
Conditions: for GFAP level relative to control animals / S-100b level relative to control animals / UCH-L1 level relative to control animals: rats, biofluids, 30, 60, 90, 120 min after dosing
Description: Acute oral In vivo drug candidate screening for neurotoxicity. […] A total of four to eight animals of are used for each dose level investigated.
At 30, 60, 90, and 120 minutes following dosing, the rats are sacrificed by decapitation and blood is obtained by cardiac puncture. The levels of biofluids S-100β, UCH-L1, and GFAP are analyzed by sandwich ELISA or western blot by using biomarker specific antibodies.

N.N.[Cl][Pt][Cl] [Cisplatin, cisplatin]
GFAP level relative to control animals: increase | S-100b level relative to control animals: increase | UCH-L1 level relative to control animals: increase

CN1CC=C(c2ccccc2)CC1 [MPTP]
GFAP level relative to control animals: increase | S-100b level relative to control animals: increase | UCH-L1 level relative to control animals: increase

C=C(C)[C@H]1CN[C@H](C(=O)O)[C@H]1CC(=O)O [kainic acid]
GFAP level relative to control animals: increase | S-100b level relative to control animals: increase | UCH-L1 level relative to control animals: increase

CN[C@@H](C)Cc1ccccc1 [methamphetamine]
CSF concentration of GFAP relative to control animals (rat, in vivo): increase | CSF concentration of UCH-L1 relative to control animals (rat, in vivo): increase | S-100b level relative to control animals: Modest increase
